Patent US20050075375A1 (priority 2003, published 2005)

What follows are molecules tested on monocistronic NK5.1 HCV replicon in Huh7 cells (assay: HCV replicon assay, monocistronic replicon cell line). Details: Hepatitis C virus, Huh-7, 72 h; Table 1; monocistronic replicon in Huh7 cells, 3 days incubation, HCV RNA/GAPDH RNA by TaqMan RT-PCR; read-out: Mono EC50 Median.
Type: cell-based, hepatitis C virus
Text: HCV Replicon Assays (Replicon EC50 (μM))
HCV replication can be measured by a replicon assay such as described by Vrolijk et al, J. Virol. Methods 110:201(2003), which is hereby incorporated in its entirety by reference. The method was implemented as follows.
Monocistronic Replicon Cell Line:
Human hepatocyte Huh7 cells containing the monocistronic NK5.1 replicon were obtained from Ralf Bartenschlager at the University of Mainz, Germany. These cells were maintained under hygromycin selection and passaged when 80-90% confluent.
This cell line contains an autonomously replicating RNA element (replicon) incorporating the non-structural HCV elements necessary for replication, and upon which the survival of the replicon in the cell depends. This replicon contains a single internal ribosome entry site (HCV IRES). Inhibition of any of the critical HCV finctions by a compound leads to loss of the replicon as measured by HCV replicon RNA copy number reduction. The amount of HCV RNA present following a standard incubation with a compound is a measure of the anti-HCV activity of the compound. The assay was conducted by preparing sufficient 96-well plates containing these cells, wherein cells are seeded at 6000 cells/well in a 96-well plate, in 200 μl of final media volume. Cells were then incubated for 24 hours at 37 C., 5% CO2, and 95% humidity before compound was added. Six point half-log concentration response assays were conducted to determine potency/EC50 of Formula I compounds to inhibit HCV replicon replication. The final percent DMSO acceptable in this assay system is 0.6%. Compounds were diluted in media in an appropriate format and 5 μl of each drug dilution is added to each well. Cells were then incubated with compounds for 3 days at 37 C., 5% CO2, and 95% humidity. Following the three day incubation period, plates were washed twice with phosphate buffered saline to remove media and cells were lysed with Qiagen extraction buffer. RNA was extracted and isolated with the Qiagen RNAeasy kit according to the manufacturer's protocol (Qiagen). TaqMan One-Step RT-PCR was used in conjunction with an ABI 7700 Sequence Detector (Applied Biosystems) for the quantitation and analysis of HCV replicon RNA copy number. A GAPDH probe was used for internal normalization. The ratio of HCV RNA to cellular GAPDH RNA was determined and compared to the DMSO-only treated control, and the ratio of HCV RNA/GAPDH RNA was used for an EC50 determination and as a measure of specificity for inhibition of the HCV replicon.

SMILES | EC50 [µM]
COc1ccc(-c2ccn(-c3ccccn3)n2)c(O)c1 [Compound 88, 5-Methoxy-2-(1-pyridin-2-yl-1H-pyrazol-3-yl)-phenol] | > 32
COc1ccc(-c2ccn(-c3ncccc3C(F)(F)F)n2)c(O)c1 [Compound 89, 5-Methoxy-2-[1-(3-trifluoromethyl-pyridin-2-yl)-1H-pyrazol-3-yl]-phenol] | 8.8
COc1ccc(-c2ccn(-c3ncccc3C(F)(F)F)n2)c(OCc2ccccc2)c1 [Compound 90] | 4.4
COc1ccc(-c2ccn(-c3ncccc3C)n2)c(O)c1 [Compound 91, 5-Methoxy-2-[1-(3-methyl-pyridin-2-yl)-1H-pyrazol-3-yl]-phenol] | 9.1
COc1ccc(-c2ccn(-c3ncccc3C)n2)c(OCc2ccccc2)c1 [Compound 92, 2-[3-(2-Benzyloxy-4-methoxy-phenyl)-pyrazol-1-yl]-3-methyl-pyridine] | 5.2
COc1ccc(O)c(-c2ccn(-c3ncccc3C)n2)c1 [Compound 93, 4-Methoxy-2-[l-(3-methyl-pyridin-2-yl)-1H-pyrazol-3-yl]-phenol] | 9.1
Cc1c2c(=O)oc3ccccc3c2nn1-c1ccccn1 [Compound 94] | 8.9
COc1ccc2oc(=O)c3c(C)n(-c4ccccn4)nc3c2c1 [Compound 95] | 5.8
COc1cccc(OCc2ccccc2)c1-c1ccn(-c2ccccn2)n1 [Compound 96, 2-[3-(2-Benzyloxy-6-methoxy-phenyl)-pyrazol-1-yl]-pyridine] | 8.6
Oc1ccc(Br)cc1-c1ccn(-c2ccccn2)n1 [Compound 97, 4-Bromo-2-(1-pyridin-2-yl-1H-pyrazol-3-yl)-phenol] | 22
Brc1ccc(OCc2ccccc2)c(-c2ccn(-c3ccccn3)n2)c1 [Compound 98, 2-[3-(2-Benzyloxy-5-bromo-phenyl)-pyrazol-1-yl]-pyridine] | 15
Cc1cccnc1-n1ccc(-c2cc(Br)ccc2O)n1 [Compound 99, 4-Bromo-2-[1-(3-methyl-pyridin-2-yl)-1H-pyrazol-3-yl]-phenol] | 3.6
Oc1ccc(Br)cc1-c1ccn(-c2ncccc2C(F)(F)F)n1 [Compound 100, 4-Bromo-2-[1-(3-trifluoromethyl-pyridin-2-yl)-1H-pyrazol-3-yl]-phenol] | 2.3
COc1ccc(O)c(-c2ccn(Cc3ncc(C)c(OC)c3C)n2)c1 [Compound 101, 4-Methoxy-2-[1-(4-methoxy-3,5-dimethyl-pyridin-2-ylmethyl)-1H-pyrazol-3-yl]-phenol] | 14.6
COc1ccc(O)c(-c2ccn(-c3ccc(C(=O)N4CCCCC4)cn3)n2)c1 [Compound 102, {6-[3-(2-Hydroxy-5-methoxy-phenyl)-pyrazol-1-yl]-pyridin-3-yl)-piperidin-1-yl-methanone] | > 32
COc1ccc(OCc2ccccc2)c(-c2ccn(Cc3nccc(OC)c3OC)n2)c1 [Compound 103, 2-[3-(2-Benzyloxy-5-methoxy-phenyl)-pyrazol-1-ylmethyl]-3,4-dimethoxy-pyridine] | > 32
COc1ccc(O)c(-c2ccn(-c3ncccc3C(=O)N3CCCCC3)n2)c1 [Compound 104, {2-[3-(2-Hydroxy-5-methoxy-phenyl)-pyrazol-1-yl]-pyridin-3-yl}-piperidin-1-yl-methanone] | > 32
COc1ccc(O)c(-c2ccn(Cc3nccc(OC)c3OC)n2)c1 [Compound 105, 2-[1-(3,4-Dimethoxy-pyridin-2-ylmethyl)-1H-pyrazol-3-yl]-4-methoxy-phenol] | > 32
Oc1ccc(Br)cc1-c1ccnn1-c1ncccc1C(F)(F)F [Compound 106, 4-Bromo-2-[2-(3-trifluoromethyl-pyridin-2-yl)-2H-pyrazol-3-yl]-phenol] | 15
FC(F)(F)c1cccnc1-n1nccc1-c1cc(Br)ccc1OCc1ccccc1 [Compound 107, 2-[5-(2-Benzyloxy-5-bromo-phenyl)-pyrazol-1-yl]-3-trifluoromethyl-pyridine] | 2.6
FC(F)(F)c1cccnc1-n1ccc(-c2cc(Br)ccc2OCc2ccccc2)n1 [Compound 108, 2-[3-(2-Benzyloxy-5-bromo-phenyl)-pyrazol-1-yl]-3-trifluoromethyl-pyridine] | > 32
COc1ccc(O)c(-c2ccnn2Cc2ccc3ccccc3n2)c1 [Compound 109, 4-Methoxy-2-(2-quinolin-2-ylmethyl-2H-pyrazol-3-yl)-phenol] | > 32

SMILES | EC50 [µM]
COc1ccc(OCc2ccccc2)c(-c2ccnn2Cc2ccc3ccccc3n2)c1 [Compound 110, 2-[5-(2-Benzyloxy-5-methoxy-phenyl)-pyrazol-1-ylmethyl]-quinoline] | 8
COc1ccc(O)c(-c2ccn(Cc3ccc4ccccc4n3)n2)c1 [Compound 111, 4-Methoxy-2-(1-quinolin-2-ylmethyl-1H-pyrazol-3-yl)-phenol] | 14
COc1ccc(OCc2ccccc2)c(-c2ccn(Cc3ccc4ccccc4n3)n2)c1 [Compound 112, 2-[3-(2-Benzyloxy-5-methoxy-phenyl)-pyrazol-1-ylmethyl]-quinoline] | 6
COc1ccc(O)c(-c2ccn(Cc3ccccn3)n2)c1 [Compound 113, 4-Methoxy-2-(1-pyridin-2-ylmethyl-1H-pyrazol-3-yl)-phenol] | > 32
COc1ccc(OCc2ccccc2)c(-c2ccn(Cc3ccccn3)n2)c1 [Compound 114, 2-[3-(2-Benzyloxy-5-methoxy-phenyl)-pyrazol-1-ylmethyl]-pyridine] | 9.5
COc1ccc(O)c(-c2ccnn2Cc2ccccn2)c1 [Compound 115, 4-Methoxy-2-(2-pyridin-2-ylmethyl-2H-pyrazol-3-yl)-phenol] | > 32
COc1ccc(OCc2ccccc2)c(-c2ccnn2Cc2ccccn2)c1 [Compound 116, 2-[5-(2-Benzyloxy-5-methoxy-phenyl)-pyrazol-1-ylmethyl]-pyridine] | 13
COc1ccc(O)c(-c2ccn(-c3ncccc3[N+](=O)[O-])n2)c1 [Compound 117, 4-Methoxy-2-[1-(3-nitro-pyridin-2-yl)-1H-pyrazol-3-yl]-phenol] | 25.4
COc1ccc(-c2ccn(-c3ccccn3)n2)c(O)c1OC [Compound 118, 2,3-Dimethoxy-6-(1-pyridin-2-yl-1H-pyrazol-3-yl)-phenol] | 23.8
COc1ccc(-c2ccn(-c3ncccc3C)n2)c(O)c1OC [Compound 119, 2,3-Dimethoxy-6-[1-(3-methyl-pyridin-2-yl)-1 H-pyrazol-3-yl]-phenol] | 11.8
COc1cc(O)c(-c2ccn(-c3ccccn3)n2)cc1OC [Compound 120, 4,5-Dimethoxy-2-(1-pyridin-2-yl-1H-pyrazol-3-yl)-p henol] | 31.2
COc1cc(OCc2ccccc2)c(-c2ccn(-c3ccccn3)n2)cc1OC [Compound 121, 2-[3-(2-Benzyloxy-4,5-dimethoxy-phenyl)-pyrazol-1-yl]-pyridine] | 13.5
COc1cc(O)c(-c2ccn(-c3ncccc3C)n2)cc1OC [Compound 122, 4,5-Dimethoxy-2-[l-(3-methyl-pyridin-2-yl)-1H-pyrazol-3-yl]-phenol] | 13
Oc1ccccc1-c1cc(-c2ccccn2)on1 [Compound 123, 2-(5-Pyridin-2-yl-isoxazol-3-yl)-phenol] | > 32
COc1cccc(-c2cc(-c3ccccn3)on2)c1O [Compound 124, 2-Methoxy-6-(5-pyridin-2-yl-isoxazol-3-yl)-phenol] | 26
COc1ccc(O)c(-c2cc(-c3ccccn3)on2)c1 [Compound 125, 4-Methoxy-2-(5-pyridin-2-yl-isoxazol-3-yl)-phenol] | 11
Oc1c(Cl)cc(Cl)cc1-c1cc(-c2ccccn2)on1 [Compound 127, 2,4-Dichloro-6-(5-pyridin-2-yl-isoxazol-3-yl)-phenol] | 7.4
Oc1ccc(Br)cc1-c1cc(-c2ncccc2C(F)(F)F)on1 [Compound 128, 4-Bromo-2-[5-(3-trifluoromethyl-pyridin-2-yl)-isoxazol-3-yl]-phenol] | > 32
COc1ccc(O)c(-c2cc(-c3ncccc3C(F)(F)F)on2)c1 [Compound 129, 4-Methoxy-2-[5-(3-trifluoromethyl-pyridin-2-yl)-isoxazol-3-yl]-phenol] | 3.8
Oc1ccc(Br)cc1-c1cc(-c2ccccn2)on1 [Compound 130, 4-Bromo-2-(5-pyridin-2-yl-isoxazol-3-yl)-phenol] | 11
Cc1cccnc1-c1cc(-c2cc(Br)ccc2O)no1 [Compound 131, 4-Bromo-2-[5-(3-methyl-pyridin-2-yl)-isoxazol-3-yl]-phenol] | 4.5
